This note sets out measurements from patent US12662475B2, “Difluorocyclohexyl derivatives as IL-17 modulators” (UCB BIOPHARMA SRL, priority 2020, dated 2026).

Assay [1] relates to IL-17 induced IL-6 release from human dermal fibroblasts. Kind of assay: Inhibition of IL-17A induced IL-6 release from dermal fibroblast cell line (HDF cell line assay). Format: cell-based. The method, then: Inhibition of IL-17A Induced IL-6 Release from Dermal Fibroblast Cell Line
The purpose of this assay is to test the neutralising ability to IL-17 proteins, in a human primary cell system.
The resultant IL-6 response was then measured using a homogenous time-resolved FRET kit from Cisbio. The kit utilises two monoclonal antibodies, one labelled with Eu-Cryptate (Donor) and the second with d2 or XL665 (Acceptor).
The ability of a compound to inhibit IL-17 induced IL-6 release from human dermal fibroblasts is measured in this assay.
The TrypLE was neutralised using complete medium (45 mL) and the cells were centrifuged at 300×g for 3 minutes. […] The cells were left for a minimum of three hours, at 37° C./5% CO2, to adhere to the plate.
10 μL from the aqueous dilution plate was transferred to the reagent plate containing 30 μL of the diluted cytokines, to give a 2.5% DMSO solution. The compounds were incubated with the cytokine mixtures for 1 h or 5 h at 37° C. After the incubation, 10 μL was transferred to the assay plate, to give a […] solution, then incubated for 18-20 h at 37° C./5% CO2.

In assay [2] the target is T1, interaction between IL-17A and soluble IL-17 Receptor A (IL-17RA) (Homo sapiens, UniProt Q16552).
T1 construct: made in house; host or cells: IL-17A-Fc: CHO SXE cells; IL-17RA: Expi HEK293 cells
T1 sequence (Q16552 24-155): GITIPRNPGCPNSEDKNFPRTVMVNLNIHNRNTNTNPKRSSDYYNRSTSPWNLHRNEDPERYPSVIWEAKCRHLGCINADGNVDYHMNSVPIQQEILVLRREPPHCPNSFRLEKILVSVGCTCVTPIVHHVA
Kind of assay: IL-17 FRET assay. The note with it: IL-17A binding to IL-17RA. The method, then:
The purpose of this assay is to test the ability of compounds to disrupt the interaction between IL-17A and soluble IL-17 Receptor A (IL-17RA). The ability of a compound to inhibit IL-17A binding to IL-17RA is measured in this assay.
An IL-17AA-TEV-Human Fc construct was expressed in a CHO SXE cell system and purified by protein A chromatography and size exclusion. The protein was labelled with an amine reactive AlexaFluor 647 dye (Thermo Fisher #A20006), as per manufacturer's instruction.
Soluble IL-17RA (33-317)-HKH-TEV-Fc was expressed in an Expi HEK293 cell system and purified by protein A chromatography and size exclusion. The Fc tag was cleaved by TEV, producing IL-17RA (33-317)-HKH, and the protein was labelled with amine reactive terbium (Thermo Fisher #PV3581).
In assay buffer [Dulbecco's PBS (Sigma #14190-094), 0.05% P20 (Thermo Scientific #28320), 1 mg/mL BSA (Sigma #A2153-500G)] the following solutions were prepared:
• IL-17A-Fc-AF647 at 5 nM • IL-17RA-HKH-Tb at 5 nM
Compounds were serially diluted in DMSO before receiving an aqueous dilution into a 384 well dilution plate (Greiner #781281), to give a 25% DMSO solution.
IL-17A (10 μL) was added to a black low volume assay plate (Costar #4511) and diluted compound (5 μL) was transferred from the aqueous dilution plate. The cytokine and compound were allowed to incubate for 1 h, then IL-17RA (10 μL) was added. The plates were wrapped in foil and incubated at room temperature for 18-20 h with gentle shaking (<400 rpm) before being read on a Perkin Elmer Envision plate reader (Excitation: 330 nm; Emission 615/645 nm).
The final assay concentrations were IL-17A-AF647 2 nM and IL-17RA-Tb 2 nM, 5% DMSO.

The term IC50 denotes the concentration that gives 50% inhibition. As for `Cn1nccc1C(=O)N[C@H](c1nc2c(F)c(C(CC(F)F)C(=O)N3CC(F)(F)C3)ccc2[nH]1)C1CCC(F)(F)CC1` (stereo partly drawn) [Example 6, N—[(S)-{5-[1-(3,3-Difluoroazetidine-1-carbonyl)-3,3-difluoropropyl]-4-fluoro-1H-benzimidazol-2-yl}(4,4-difluorocyclohexyl)methyl]-2-methylpyrazole-3-carboxamide], the values for the half-maximal inhibitory concentration (IC50) in assay [1] (Incubation Time 5 h) and in assay [2] were 25.1 nM and 79.4 nM, respectively.

Take `CC(C(=O)N1CC(F)(F)C1)c1ccc2[nH]c([C@@H](NC(=O)c3ccnn3C)C3CCC(F)(F)CC3)nc2c1F` (mixture of isomers) [Example 20, N—[(S)-{5-[2-(3,3-Difluoroazetidin-1-yl)-1-methyl-2-oxoethyl]-4-fluoro-1H-benzimidazol-2-yl}(4,4-difluorocyclohexyl)methyl]-2-methylpyrazole-3-carboxamide]: the figures for the half-maximal inhibitory concentration (IC50) in assay [1] (Incubation Time 5 h) and in assay [2] were 20 nM and 100 nM, respectively.

Regarding `Cc1nonc1C(=O)N[C@H](c1nc2c(F)c(C3(C(=O)N4CC(F)(F)C4)CCNCC3)ccc2[nH]1)C1CCC(F)(F)CC1` [Example 16, N—[(S)-{5-[4-(3,3-Difluoroazetidine-1-carbonyl)piperidin-4-yl]-4-fluoro-1H-benzimidazol-2-yl}(4,4-difluorocyclohexyl)methyl]-4-methyl-1,2,5-oxadiazole-3-carboxamide], the values for the IC50 in assay [1] (Incubation Time 5 h) and in assay [2] were 79.4 nM and 126 nM, respectively.

Consider `Cc1nonc1C(=O)N[C@H](c1nc2c(F)c([C@H](CC(F)F)C(=O)N3CC(F)(F)C3)ccc2[nH]1)C1CCC(F)(F)CC1` (single isomer, unassigned) [Example 4], for which the IC50 in assay [1] (Incubation Time 5 h) was 15.8 nM; in assay [2] it was 39.8 nM.

Turning to `C[C@@H](C(=O)N1CC(F)(F)C1)c1ccc2[nH]c([C@@H](NC(=O)c3ccnn3C)C3CCC(F)(F)CC3)nc2c1F` (single isomer, unassigned) [Example 22], the half-maximal inhibitory concentration (IC50) in assay [1] (Incubation Time 5 h) and in assay [2] was 316 nM throughout.

For `Cn1nccc1C(=O)N[C@H](c1nc2c(F)c(C(CC(F)(F)F)C(=O)N3CC(F)(F)C3)ccc2[nH]1)C1CCC(F)(F)CC1` (stereo partly drawn) [Example 8, N—[(S)-{5-[1-(3,3-Difluoroazetidine-1-carbonyl)-3,3,3-trifluoropropyl]-4-fluoro-1H-benzimidazol-2-yl}(4,4-difluorocyclohexyl)methyl]-2-methylpyrazole-3-carboxamide], the half-maximal inhibitory concentration (IC50) in assay [1] (Incubation Time 5 h) was 25.1 nM; in assay [2], 100 nM.

As to `Cc1nonc1C(=O)N[C@H](c1nc2nc(C3(C(=O)NCC4CC4(F)F)CCOCC3)ccc2[nH]1)C1CCC(F)(F)CC1` (stereo partly drawn) [Example 24, N—[(S)-(4,4-Difluorocyclohexyl)(5-{4-[(2,2-difluorocyclopropyl)methylcarbamoyl]-tetrahydropyran-4-yl}-1H-imidazo[4,5-b]pyridin-2-yl)methyl]-4-methyl-1,2,5-oxadiazole-3-carboxamide], the IC50 in assay [1] (Incubation Time 5 h) is 6.31 nM; in assay [2], 25.1 nM.

Regarding `Cc1nonc1C(=O)N[C@H](c1nc2c(F)c(C3(C(=O)N4CC(F)(F)C(F)(F)C4)CCOCC3)ccc2[nH]1)C1CCC(F)(F)CC1` [Example 19, N—[(S)-(4,4-Difluorocyclohexyl){4-fluoro-5-[4-(3,3,4,4-tetrafluoropyrrolidine-1-carbonyl)tetrahydropyran-4-yl]-1H-benzimidazol-2-yl}methyl]-4-methyl-1,2,5-oxadiazole-3-carboxamide], the results for the 50% inhibitory concentration (IC50) in assay [1] (Incubation Time 5 h) and in assay [2] were 3.98 nM and 12.6 nM, respectively.

In the case of `[2H]C([2H])([2H])n1nccc1C(=O)N[C@H](c1nc2c(F)c(C3(C(=O)N4CC(F)(F)C4)CC(F)(F)C3)ccc2[nH]1)C1CCC(F)(F)CC1` [Example 18, N—[(S)-{5-[1-(3,3-Difluoroazetidine-1-carbonyl)-3,3-difluorocyclobutyl]-4-fluoro-1H-benzimidazol-2-yl}(4,4-difluorocyclohexyl)methyl]-2-(trideuteriomethyl)pyrazole-3-carboxamide], the IC50 in assay [1] (Incubation Time 1 h) was 79.4 nM; in assay [2] it was 158 nM.

Consider `COC(=O)N1CCC(C(=O)N2CC(F)(F)C2)(c2ccc3[nH]c([C@@H](NC(=O)c4nonc4C)C4CCC(F)(F)CC4)nc3c2F)CC1` [Example 17, Methyl 4-(3,3-difluoroazetidine-1-carbonyl)-4-(2-{(S)-(4,4-difluorocyclohexyl)[(4-methyl-1,2,5-oxadiazole-3-carbonyl)amino]methyl}-4-fluoro-1H-benzimidazol-5-yl)-piperidine-1-carboxylate], for which the IC50 in assay [1] (Incubation Time 5 h) was 12.6 nM; in assay [2] it was 50.1 nM.

Consider `C[C@H](C(=O)N1CC(F)(F)C1)c1ccc2[nH]c([C@@H](NC(=O)c3ccnn3C)C3CCC(F)(F)CC3)nc2c1F` (single isomer, unassigned) [Example 21], for which the half-inhibitory concentration (IC50) in assay [1] (Incubation Time 5 h) was 15.8 nM; in assay [2], 25.1 nM.

Turning to `COC(=O)N1CC[C@](C(=O)N2CC(F)(F)C(F)(F)C2)(c2ccc3[nH]c([C@@H](NC(=O)c4nonc4C)C4CCC(F)(F)CC4)nc3c2F)C1` (single isomer, unassigned) [Example 1], the half-maximal inhibitory concentration (IC50) was 6.31 nM in assay [1] (Incubation Time 5 h) and 39.8 nM in assay [2].

Turning to `Cc1nonc1C(=O)N[C@H](c1nc2c(F)c(C(CC(F)F)C(=O)N3CC(F)(F)C3)ccc2[nH]1)C1CCC(F)(F)CC1` (mixture of isomers) [Example 3, N—[(S)-{5-[1-(3,3-Difluoroazetidine-1-carbonyl)-3,3-difluoropropyl]-4-fluoro-1H-benzimidazol-2-yl}(4,4-difluorocyclohexyl)methyl]-4-methyl-1,2,5-oxadiazole-3-carboxamide], the IC50 in assay [1] (Incubation Time 5 h) and in assay [2] was 25.1 nM throughout.

Take `Cc1nonc1C(=O)N[C@H](c1nc2c(F)c([C@@H](CC(F)F)C(=O)N3CC(F)(F)C3)ccc2[nH]1)C1CCC(F)(F)CC1` (single isomer, unassigned) [Example 5]: the half-inhibitory concentration (IC50) was 1260 nM in assay [1] (Incubation Time 1 h) and 1580 nM in assay [2].

In the case of `Cc1nonc1C(=O)N[C@H](c1nc2c(F)c(C(CC(F)(F)F)C(=O)N3CC(F)(F)C3)ccc2[nH]1)C1CCC(F)(F)CC1` (stereo partly drawn) [Example 7, N—[(S)-{5-[1-(3,3-Difluoroazetidine-1-carbonyl)-3,3,3-trifluoropropyl]-4-fluoro-1H-benzimidazol-2-yl}(4,4-difluorocyclohexyl)methyl]-4-methyl-1,2,5-oxadiazole-3-carboxamide], the half-inhibitory concentration (IC50) in assay [1] (Incubation Time 5 h) and in assay [2] was 15.8 nM in each case.

Take `COC(=O)N1CC[C@@](C(=O)N2CC(F)(F)C(F)(F)C2)(c2ccc3[nH]c([C@@H](NC(=O)c4nonc4C)C4CCC(F)(F)CC4)nc3c2F)C1` (single isomer, unassigned) [Example 2]: the values for the IC50 in assay [1] (Incubation Time 5 h) and in assay [2] were 10 nM and 39.8 nM, respectively.

In the case of `Cc1nonc1C(=O)N[C@H](c1nc2c(F)c(C3(C(=O)N4CC(F)(F)C4)CCC(F)(F)CC3)ccc2[nH]1)C1CCC(F)(F)CC1` [Example 23, N—[(S)-{5-[1-(3,3-Difluoroazetidine-1-carbonyl)-4,4-difluorocyclohexyl]-4-fluoro-1H-benzimidazol-2-yl}(4,4-difluorocyclohexyl)methyl]-4-methyl-1,2,5-oxadiazole-3-carboxamide], the results for the IC50 in assay [1] (Incubation Time 5 h) and in assay [2] were 10 nM and 20 nM, respectively.
